Measurements taken from patent publication US20260209260A1, “VECTORIZED NHC IRIDIUM(III) COMPLEXES AND USE THEREOF IN PHOTODYNAMIC THERAPY AND/OR DIAGNOSTIC” (CENTRE NATIONAL DE LA RECHERCHE SCIENTIFIQUE, priority 2022, published 2026).
Where two headings read alike, the source gives them in different places.

Key:
[1] = Luminescence emission spectra and quantum yield; assay type: physicochemical; conditions: for ΦP emission phosphorescence quantum yield: room temperature, reference POPOP in hexane or rhodamine B in ethanol; for λem: CH2Cl2, room temperature, λexc 365 nm or 470 nm
Experimental: Fluorescence and phosphorescence emission spectra were obtained with a HORIBA JOBIN YVON, fluromax-4 and spectrofluorometer.
Luminescence quantum yields were measured according to the method of Demas and Crosby, on solution samples at RT. The quantum yield is defined as: […]
Where ΦP is the quantum yield of the sample, ΦR is the know quantum yield of the reference standard. […].
The luminescence spectra of vectorized iridium(III) complexes were determined in CH2Cl2 at room temperature (Table 3).

[2] = test system: NIH-3T3 fibroblast cells (non-tumor); experiment: Cell viability assay (MTT), dark and blue light; assay type: cell-based, Murine; conditions: for Photosensitizing index (PI) NIH-3T3: dark vs blue light 458 nm
Experimental: Cells were grown in humidified incubators at 37° C. in 5% CO2. Murine MC3T3 osteoblast and NIH-3T3 fibroblast cells-used as non-tumor cell models-were cultured in a-MEM medium and DMEM medium supplemented with 10% fetal bovine serum (FBS) and 1% Penicillin/Streptomycin (P/S) antibiotics, respectively. Human T24 bladder, MGHU3 bladder, Scaber bladder, A549 lung, MCF7 breast, MiaPaCa2 pancreas cancer cells were cultured in DMEM medium supplemented with 10% FBS and 1% P/S antibiotics. […] Human Hela cervix and HepG2 liver cancer cells were cultured EMEM medium supplemented with 10% FBS and 1% P/S antibiotics.
(§1) MTT reagent (3-(4,5-dimethylthiazol-2-yl)-2,5-diphenyltetrazolium bromide) was used to determine cell death as originally described by Mosmann. Briefly, cells were seeded from 5,000 to 10,000 cells/well in 24-well plates (1 mL) depending on the cell type and allowed to attach overnight. The complexes were prepared in DMSO. The concentration of the complexes was calculated based on the elemental composition of the complexes determined by the elemental analyses. All cell viability experiments were carried out with a fixed concentration of 0.1% (v/v) DMSO. After 72 h of treatment, cells were incubated at 37° C. and 5% CO2 with 25 μL of MTT solution (5 mg/ml; Sigma-Aldrich) in 24-well plates for 3 to 4 h. After solubilization with 500 μL of DMSO, formazan was quantified spectrophotometrically with a microplate reader at 570 nm absorbance (ClarioSTAR, BMG LabTech). […] All the results were calculated from data obtained in at least three independent experiments performed in triplicate.
(§2) Two sets of experiments were conducted in parallel for each complex to be studied:
(§3) 1. The cells were incubated with the different complexes (in the dark) for 72 h.
(§4) 2. The cells were incubated for 8 h with the different complexes (in the dark), then irradiated for 10 min, followed by an incubation in the dark up to 72 h.

[3] = UV/Vis absorption spectra; assay type: physicochemical; conditions: room temperature; for maximum absorption, lowest-lying bands in the visible region over 360 nm: CH2Cl2 or CH2Cl2/MeOH (1:1); for λmax (nm) ε (M^−1 · cm^−1): air-saturated CH2Cl2 or CH2Cl2/MeOH (1:1), 50 μM, ε in brackets, sh = shoulder
Experimental: UV/Vis absorption spectra were recorded at RT on solutions contained in quartz cuvettes (optical pathlength 1 cm, Hellma®) with a PerkinElmer® UV/VIS/NIR spectrophotometer Lambda 950 and a PerkinElmer® detector UV/VIS/NIR Accessory 2D Detector Module.

[4] = Lipophilicity: octanol-water partition coefficient, shake-flask method
Experimental: The octanol-water partition coefficients (P) of all the complexes were determined using a shake-flask method^8. Water (100 mL, distilled after milli-Q purification) and n-octanol (100 mL, Sigma Aldrich, ACS spectrophotometric grade, ≥99%) were shaken together for 24 h to allow saturation of both phases. Stock solutions of the compounds ([…]) were prepared in the aqueous phase. Aliquots (2 mL) of each of these stock solutions were then added to an equal volume of the n-octanol phase. The resultant biphasic solution was mixed for 15 min and then centrifuged (3000 tr/min, 5 min) to separate the phases. The concentrations of the complex in the organic and aqueous phases were then determined using UV absorbance spectroscopy (260 nm). The blank is the water saturated with n-octanol. Log P was defined as logarithm of the ratio of the concentrations of the complex in the organic and aqueous phases (values reported are the means of at least three separated determinations).
The Log P values have been determined by a classical shake-flask method.

[5] = Emission lifetime measurement; assay type: physicochemical
Experimental: Fluorescence lifetime measurements were performed by an Edinburgh FLS920 spectrofluorimeter equipped with a TCC900 card for data acquisition in time-correlated single-photon counting experiments (0.5 ns time resolution) with a D2 lamp and an LDH—P-C-405 pulsed diode laser. The estimated experimental error is 2 nm on the band maximum (5% on the lifetime, 10% on the fluorescence quantum yield).
The emission lifetimes of biotin-vectorized complexes (I-a) to (I-l) range from 138 ns to 411 ns, among them, the lifetime of biotin-vectorized complexes (I-c), (I-e), (I-k) are 411, 224, and 322 ns respectively. The emission lifetimes of FTS-vectorized complexes (II-a) to (II-l) range from 167 ns to 486 ns, among them, the lifetime of FTS-vectorized complexes (II-c) and (II-k) are 319 and 486 ns respectively. The emission lifetimes of PSMA-vectorized complexes (III-a) to (III-l) are in the range of 159-649 ns, among them, the lifetime of complexes (III-a) and (III-k) were 248 and 649 ns, respectively. The emission lifetimes of Fc-vectorized complexes (IV-a) to (IV-l) are in the range of 178-228 ns.

[6] = test system: C4-2B prostate cancer cells (PSMA-positive); experiment: Cell viability assay (MTT), dark and blue light; assay type: cell-based, Human; conditions: for Photosensitizing index (PI) C4-2b: dark vs blue light 458 nm
Experimental: (§5) Cells were grown in humidified incubators at 37° C. in 5% CO2. Murine MC3T3 osteoblast and NIH-3T3 fibroblast cells-used as non-tumor cell models-were cultured in a-MEM medium and DMEM medium supplemented with 10% fetal bovine serum (FBS) and 1% Penicillin/Streptomycin (P/S) antibiotics, respectively. Human T24 bladder, MGHU3 bladder, Scaber bladder, A549 lung, MCF7 breast, MiaPaCa2 pancreas cancer cells were cultured in DMEM medium supplemented with 10% FBS and 1% P/S antibiotics. Human ASPC-1 pancreas, PC-3 prostate, DU-145 prostate, C4-2B prostate and 22rV1 prostate cancer cells were cultured in RPMI medium supplemented with 10% FBS and 1% P/S antibiotics. Human Hela cervix and HepG2 liver cancer cells were cultured EMEM medium supplemented with 10% FBS and 1% P/S antibiotics.
as §1
(§6) Irradiation was conducted using an in-house device, a series of blue light LEDs selected according to the absorption spectra of the compounds at 458 nm wavelength with an emitted power of 9.6 Watts. The light fluence was measured at 458 nm with an optical power meter Thorlabs PM100A at different distances between the cell layer and the light source (5 and 10 cm).
as §2, §3, §4

[7] = test system: PC-3 prostate cancer cells (PSMA-negative); experiment: Cell viability assay (MTT), dark and blue light; assay type: cell-based, Human; conditions: for SI (vs NIH-3T3) PC-3 Blue: blue light 458 nm; for Photosensitizing index (PI) PC-3: dark vs blue light 458 nm
Experimental: as §5, §1, §6, §2, §3, §4

[8] = 8 h in the dark, blue light 458 nm 10 min, then dark up to 72 h, read-out: GI50 NIH-3T3 Blue
[9] = NIH-3T3, blue light, read-out: GI50
[10] = in the dark, 72 h, read-out: GI50 NIH-3T3 Dark
[11] = n-octanol/water, shake-flask, mean of at least three determinations
[12] = 8 h in the dark, blue light 458 nm 10 min, then dark up to 72 h, read-out: GI50 PC-3 Blue
[13] = PC3, blue light, read-out: GI50
[14] = in the dark, 72 h, read-out: GI50 PC-3 Dark

SMILES	ΦP emission phosphorescence quantum yield [1] [%]	GI50 [2, 8] [µM]	GI50 [2, 9] [µM]	GI50 ([2]; NIH-3T3, dark, read-out: GI50) [µM]	Photosensitizing index (PI) NIH-3T3 [2]	GI50 [2, 10] [µM]	maximum absorption, lowest-lying bands in the visible region over 360 nm [3]	λmax (nm) ε (M^−1 · cm^−1) [3]	Log P [4, 11]	τ1 emission lifetime [5] [ns]	Photosensitizing index (PI) C4-2b [6]	GI50 [7, 12] [µM]	GI50 [7, 13] [µM]	GI50 ([7]; PC3, dark, read-out: GI50) [µM]	SI (vs NIH-3T3) PC-3 Blue [7]	Photosensitizing index (PI) PC-3 [7]	GI50 [7, 14] [µM]	λem [1] [nm]	other results
Cc1ccc2[c](c1)[Ir-3]13([c]4cc(C)ccc4-c4cccc[n+]41)([c]1n(CCC(=O)NCCCC[C@H](NC(=O)N[C@@H](CCC(=O)O)C(=O)O)C(=O)O)cc[n+]1-c1cccc[n+]13)[n+]1ccccc1-2.F[P-](F)(F)(F)(F)F [III-b]	1.8	> 100	> 100	> 100	did not show any photosensitizing effect	> 100	around 380 nm	310 (sh) (23310), 379 (7615) nm (M^−1 · cm^−1)	−0.14 ± 0.04	194	did not show any photosensitizing effect	> 100	> 100	> 100	1.0	did not show any photosensitizing effect	> 100	–	–
COC(=O)c1cccc2[c]1[Ir-3]13([c]4c(C(=O)OC)cccc4-c4cccc[n+]41)([c]1n(CCC(=O)NCCCC[C@H](NC(=O)N[C@@H](CCC(=O)O)C(=O)O)C(=O)O)cc[n+]1-c1cccc[n+]13)[n+]1ccccc1-2.F[P-](F)(F)(F)(F)F [III-d]	2.1	> 100	> 100	> 100	did not show any photosensitizing effect	> 100	around 370 nm	370 (13650), 452 (sh) (565) nm (M^−1 · cm^−1)	−0.52 ± 0.01	219	did not show any photosensitizing effect	> 100	> 100	> 100	1.0	did not show any photosensitizing effect	> 100	498	–
F[P-](F)(F)(F)(F)F.O=C(O)CC[C@H](NC(=O)N[C@@H](CCCCNC(=O)CCn1cc[n+]2[c]1[Ir-3]13([c]4ccccc4-c4ccc5ccccc5[n+]41)([c]1ccccc1-c1ccc4ccccc4[n+]13)[n+]1ccccc1-2)C(=O)O)C(=O)O [III-g]	0.1	> 100	> 100	> 100	–	> 100	–	334 (18100), 436 (4280) nm (M^−1 · cm^−1)	–	191	–	48.7	48.7	> 100	>2.1	–	≥ 100	593	Log P [4]: 0.33 ± 0.01; GI50 ([6]; 8 h in the dark, blue light 458 nm 10 min, then dark up to 72 h, read-out: GI50 C4-2b Blue): 17.6 µM; GI50 ([6]; C4-2b, blue light, read-out: GI50): 17.6 µM; Photosensitizing index (PI) ([6]; C4-2b, dark vs blue light): 1.2; GI50 ([6]; C4-2b, dark, read-out: GI50): 21.3 µM; SI (vs NIH-3T3) C4-2b Blue ([6]; blue light 458 nm): >5.7; GI50 ([6]; in the dark, 72 h, read-out: GI50 C4-2b Dark): 21.3 µM; Photosensitizing index (PI) ([7]; PC3, dark vs blue light): >2.1
